Reference: patent US20220288077A1, “PROSTATITIS TREATMENT” (NATIONAL INSTITUTE OF BIOLOGICAL SCIENCES, priority 2019, published 2022)

Test system: carrageenan-induced male rat prostate disease model
Test: Carrageenan-induced male rat prostate disease model: representative RIP1, RIP3 and MLKL inhibitors
Assay type: in vivo
Conditions: list after the methods of the example; protocols based on RIPA-56
Method: Experimental protocols for the compounds of Table 1 were based on those used for RIPA-56. Each inhibitor was intraperitoneally or orally administrated to rat before carrageenan treatment, at the dose of 20 mg/kg to 100 mg/kg.
Each inhibitor was intraperitoneally or orally administrated to rat before carrageenan treatment, at the dose of 20 mg/kg to 100 mg/kg.
All the SD rats were randomly divided into different groups (n=8-10): control group, model group, and compounds-treated groups. For injection of carrageenan or saline, rats were anesthetized with 4% chloral hydrate and were fixed in a supine position. […] A small midline incision was made in the sterile area, then the bladder and the prostate carefully exposed. With a 30-gauge needle, 50 ul sterile suspension of 3% carrageenan (Sigma, MO, USA) or saline (sham group) was injected into both right and left ventral lobes of the prostate gland. […] While an equal amount of solvents were intraperitoneally and orally injected to control rats.

Q: `O=c1c2c3c(sc2ncn1Cc1ccccc1)CCC3` [3-benzyl-6,7-dihydro-3H-cyclopenta[4,5]thieno[2,3-d]pyrimidin-4(5H)-one] was tested. Which “listed under heading Active RIP1 Inhibitors” value did it give?
A: Active

Q: How did the “listed under heading Active RIP1 Inhibitors” value turn out when `Cc1cccc2c(CC3NC(=O)N(C)C3=O)c[nH]c12` (centres unmarked) [3-methyl-5-((7-methyl-1H-indol-3-yl)methyl)imidazolidine-2,4-dione] was run?
A: Active

Q: For `O=C1CCCc2ccc(Br)cc2N1` [8-bromo-4,5-dihydro-1H-benzo[b]azepin-2(3H)-one], which “listed under heading Active RIP1 Inhibitors” value is on record?
A: Active

Q: How did the “listed under heading Active RIP1 Inhibitors” value turn out when `O=C(N1CCCC1c1cccc(F)c1)C1(C(F)(F)F)CCC1` (centres unmarked) [(2-(3-fluorophenyl)pyrrolidin-1-yl)(1-(trifluoromethyl)cyclobutyl)methanone] was run?
A: Active

Q: Which “listed under heading Active RIP1 Inhibitors” value does the source give for `O=C(N1CCCC1c1cccc(F)c1)C1(C(F)(F)F)CCCC1` (centres unmarked) [(2-(3-fluorophenyl)pyrrolidin-1-yl)(1-(trifluoromethyl)cyclopentyl)methanone] here?
A: Active

Q: With `CN1C(=O)N[C@H](Cc2c[nH]c3c(Cl)cccc23)C1=O` [(R)-5-((7-chloro-1H-indol-3-yl)methyl)-3-methylimidazolidine-2,4-dione] as the molecule, how does the “listed under heading Active RIP1 Inhibitors” value read?
A: Active

Q: For `C=CC(C)(C)C(=O)N1C(=O)C[C@H]1c1ccccc1` [(S)-1-(2,2-dimethylbut-3-enoyl)-4-phenylazetidin-2-one], which “listed under heading Active RIP1 Inhibitors” value is on record?
A: Active

Q: `CCC(C)(C)C(=O)N1C(=O)C[C@H]1c1ccccc1` [(S)-1-(2,2-dimethylbutanoyl)-4-phenylazetidin-2-one] was tested. Which “listed under heading Active RIP1 Inhibitors” value did it give?
A: Active

Q: Which “listed under heading Active RIP1 Inhibitors” value does the source give for `CC(=O)N1CCC(C(=O)N2N=CC[C@H]2c2cc(F)cc(F)c2)CC1` [(S)-1-(4-(5-(3,5-difluorophenyl)-4,5-dihydro-1H-pyrazole-1-carbonyl)piperidin-1-yl)ethanone] here?
A: Active

Q: With `CC(=O)N1CCC(C(=O)N2N=CC[C@H]2c2ccccc2)CC1` [(S)-1-(4-(5-phenyl-4,5-dihydro-1H-pyrazole-1-carbonyl)piperidin-1-yl)ethanone] as the molecule, how does the “listed under heading Active RIP1 Inhibitors” value read?
A: Active

Q: With `C#CC(C)(C)C(=O)N1CC[C@H]1c1ccccc1` [(S)-2,2-dimethyl-1-(2-phenylazetidin-1-yl)but-3-yn-1-one] as the molecule, how does the “listed under heading Active RIP1 Inhibitors” value read?
A: Active

Q: How did the “listed under heading Active RIP1 Inhibitors” value turn out when `CC(C)(C)C(=O)N1N=CC[C@H]1c1ccccn1` [(S)-2,2-dimethyl-1-(5-(pyridin-2-yl)-4,5-dihydro-1H-pyrazol-1-yl)propan-1-one] was run?
A: Active

Q: Which “listed under heading Active RIP1 Inhibitors” value does the source give for `CN1C(=O)[C@@H](NC(=O)c2nnc(Cc3ccccc3)[nH]2)COc2ccccc21` [(S)-5-benzyl-N-(5-methyl-4-oxo-2,3,4,5-tetrahydrobenzo[b][1,4]oxazepin-3-yl)-4H-1,2,4-triazole-3-carboxamide] here?
A: Active

Q: `CN1C(=O)[C@@H](NC(=O)c2cc(Cc3ccccc3)on2)COc2ccc(-c3nnn[nH]3)cc21` [(S)-5-benzyl-N-(5-methyl-4-oxo-7-(1H-tetrazol-5-yl)-2,3,4,5-tetrahydrobenzo[b][1,4]oxazepin-3-yl)isoxazole-3-carboxamide] was tested. Which “listed under heading Active RIP1 Inhibitors” value did it give?
A: Active

Q: `O=C(N[C@H]1COc2cc(Cl)ccc2NC1=O)c1nnc(Cc2ccccc2)[nH]1` [(S)-5-benzyl-N-(8-chloro-4-oxo-2,3,4,5-tetrahydrobenzo[b][1,4]oxazepin-3-yl)-4H-1,2,4-triazole-3-carboxamide] was tested. Which “listed under heading Active RIP1 Inhibitors” value did it give?
A: Active

Q: Which “listed under heading Active RIP1 Inhibitors” value does the source give for `O=C(c1ccccc1)N1N=CC[C@H]1c1ccccc1` [(S)-phenyl(5-phenyl-4,5-dihydro-1H-pyrazol-1-yl)methanone] here?
A: Active

Q: Which “listed under heading Active RIP1 Inhibitors” value does the source give for `C[C@H](NC(=O)c1snnc1C1CC1)c1c(F)cccc1Cl` [(S)—N-(1-(2-chloro-6-fluorophenyl)ethyl)-4-cyclopropyl-1,2,3-thiadiazole-5-carboxamide] here?
A: Active

Q: With `CN(c1ccc(NC(=O)Nc2ccc(OC(F)(F)F)cc2)cc1)c1ccnc(Nc2cccc(S(N)(=O)=O)c2)n1` [Compound 1, 3-((4-(methyl(4-(3-(4-(trifluoromethoxy)phenyl)ureido)phenyl)amino)pyrimidin-2-yl)amino)benzenesulfonamide] as the molecule, how does the “listed under heading Active MLKL Inhibitors” value read?
A: Active

Q: With `Nc1ncnc2occ(-c3ccc(NC(=O)Nc4cc(C(F)(F)F)ccc4F)cc3)c12` [Cpd27, 1-(4-(4-aminofuro[2,3-d]pyrimidin-5-yl)phenyl)-3-(2-fluoro-5-(trifluoromethyl)phenyl)urea] as the molecule, how does the “listed under heading Active RIP1 Inhibitors” value read?
A: Active

Q: Which “listed under heading Active RIP3 Inhibitors” value does the source give for `CC(C)(C)c1nc(-c2cccc(NS(=O)(=O)c3c(F)cccc3F)c2F)c(-c2ccnc(N)n2)s1` [Dabrafenib, N-[3-[5-(2-amino-4-pyrimidinyl)-2-(1,1-dimethylethyl)-4-thiazolyl]-2-fluorophenyl]-2,6-difluoro-benzenesulfonamide] here?
A: Active

Q: How did the “listed under heading Active RIP1 Inhibitors” value turn out when `CN1C(=O)[C@@H](NC(=O)c2cc(Cc3ccccc3)on2)COc2ccccc21` [GSK481, (S)-5-benzyl-N-(5-methyl-4-oxo-2,3,4,5-tetrahydrobenzo[b][1,4]oxazepin-3-yl)isoxazole-3-carboxamide] was run?
A: Active

Q: For `CC(C)(C)C(=O)N1N=CC[C@H]1c1ccccc1` [GSK963, (S)-2,2-dimethyl-1-(5-phenyl-4,5-dihydro-1H-pyrazol-1-yl)propan-1-on], which “listed under heading Active RIP1 Inhibitors” value is on record?
A: Active

Q: How did the “listed under heading Active RIP1 Inhibitors” value turn out when `CN1C(=O)[C@@H](NC(=O)c2n[nH]c(Cc3ccccc3)n2)COc2ccccc21` [GSK2982772, (S)-5-benzyl-N-(5-methyl-4-oxo-2,3,4,5-tetrahydrobenzo[b]-[1,4]oxazepin-3-yl)-1H-1,2,4-triazole-3-carboxamide] was run?
A: Active

Q: For `CNC(=O)c1ccc2c(c1)ncn2-c1ccc(CC(=O)OC(C)(C)C)cc1` [GSK'840, tert-butyl 2-(4-(5-(methylcarbamoyl)-1H-benzo[d]imidazol-1-yl)phenyl)acetate], which “listed under heading Active RIP3 Inhibitors” value is on record?
A: Active

Q: With `Cc1cc(-c2cnc(N)c3c(-c4ccc5scnc5c4)csc23)n(C)n1` [GSK'843, 3-(benzo[d]thiazol-5-yl)-7-(1,3-dimethyl-1H-pyrazol-5-yl)thieno[3,2-c]pyridin-4-amine] as the molecule, how does the “listed under heading Active RIP3 Inhibitors” value read?
A: Active

Q: With `CC(C)S(=O)(=O)c1ccc2nccc(Nc3ccc4scnc4c3)c2c1` [GSK'872, N-(6-(isopropylsulfonyl)quinolin-4-yl)benzo[d]thiazol-5-amine] as the molecule, how does the “listed under heading Active RIP3 Inhibitors” value read?
A: Active

Q: For `CCC(C)(C)C(=O)N(O)Cc1ccc(F)cc1F` [N-(2,4-Difluorobenzyl)-N-hydroxy-2,2-dimethylbutanamide], which “listed under heading Active RIP1 Inhibitors” value is on record?
A: Active

Q: Which “listed under heading Active RIP1 Inhibitors” value does the source give for `CCC(C)(C)C(=O)N(O)Cc1ccc(F)c(F)c1` [N-(3,4-Difluorobenzyl)-N-hydroxy-2,2-dimethylbutanamide] here?
A: Active

Q: With `O=C(NCc1c(F)ccc(Cl)c1F)c1snnc1C1CC1` [N-(3-chloro-2,6-difluorobenzyl)-4-cyclopropyl-1,2,3-thiadiazole-5-carboxamide] as the molecule, how does the “listed under heading Active RIP1 Inhibitors” value read?
A: Active

Q: How did the “listed under heading Active RIP1 Inhibitors” value turn out when `CCC(C)(C)C(=O)N(O)Cc1ccc(F)cc1` [N-(4-Fluorobenzyl)-N-hydroxy-2,2-dimethylbutanamide] was run?
A: Active

Q: How did the “listed under heading Active RIP1 Inhibitors” value turn out when `CCC(C)(C)C(=O)N(O)Cc1ccccc1` [N-Benzyl-N-hydroxy-2,2-dimethylbutanamide] was run?
A: Active

Q: Which “listed under heading Active RIP1 Inhibitors” value does the source give for `CCC(C)(C)C(=O)N(O)Cc1ccc(F)c(F)c1F` [N-Hydroxy-2,2-dimethyl-N-(2,3,4-trifluorobenzyl)butanamide] here?
A: Active
